Results from the supplement of paper PMC11451515.

System: P12-Ichikawa
Assay: cell viability relative to DMSO control; higher = less cytotoxic
Conditions: 48 h
Procedure, shortened: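 Cells were incubated for 48 h at 37°C before CellTiter-Glo One luminescence was read. The cells were NOMO1 or SEM (500 cells/well) or P12-Ichikawa (1000 cells/well) leukemia cells, adapted for at least four passages in each medium and seeded in 1536-well plates (5 μl). Dosing used library compounds in DMSO applied by pin over 11 threefold points, 47 μM to 0.79 nM. Viability is the per-plate percentage of DMSO wells, with cell-free wells as background.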

[1] = HPLM + 10% dialyzed FBS, 0.000781 µM
[2] = HPLM + 10% dialyzed FBS, 0.00234 µM
[3] = HPLM + 10% dialyzed FBS, 0.00702 µM
[4] = HPLM + 10% dialyzed FBS, 0.0211 µM
[5] = HPLM + 10% dialyzed FBS, 0.0632 µM
[6] = HPLM + 10% dialyzed FBS, 0.19 µM
[7] = HPLM + 10% dialyzed FBS, 0.569 µM
[8] = HPLM + 10% dialyzed FBS, 1.71 µM
[9] = HPLM + 10% dialyzed FBS, 5.12 µM
[10] = HPLM + 10% dialyzed FBS, 15.4 µM
[11] = HPLM + 10% dialyzed FBS, 46.1 µM
[12] = RPMI 5 mM glucose + 10% FBS, 0.000781 µM
[13] = RPMI 5 mM glucose + 10% FBS, 0.00234 µM
[14] = RPMI 5 mM glucose + 10% FBS, 0.00702 µM
[15] = RPMI 5 mM glucose + 10% FBS, 0.0211 µM
[16] = RPMI 5 mM glucose + 10% FBS, 0.0632 µM
[17] = RPMI 5 mM glucose + 10% FBS, 0.19 µM
[18] = RPMI 5 mM glucose + 10% FBS, 0.569 µM
[19] = RPMI 5 mM glucose + 10% FBS, 1.71 µM
[20] = RPMI 5 mM glucose + 10% FBS, 5.12 µM
[21] = RPMI 5 mM glucose + 10% FBS, 15.4 µM
[22] = RPMI 5 mM glucose + 10% FBS, 46.1 µM
[23] = RPMI 5 mM glucose + 10% dialyzed FBS, 0.000781 µM
[24] = RPMI 5 mM glucose + 10% dialyzed FBS, 0.00234 µM
[25] = RPMI 5 mM glucose + 10% dialyzed FBS, 0.00702 µM
[26] = RPMI 5 mM glucose + 10% dialyzed FBS, 0.0211 µM
[27] = RPMI 5 mM glucose + 10% dialyzed FBS, 0.0632 µM
[28] = RPMI 5 mM glucose + 10% dialyzed FBS, 0.19 µM
[29] = RPMI 5 mM glucose + 10% dialyzed FBS, 0.569 µM
[30] = RPMI 5 mM glucose + 10% dialyzed FBS, 1.71 µM
[31] = RPMI 5 mM glucose + 10% dialyzed FBS, 5.12 µM
[32] = RPMI 5 mM glucose + 10% dialyzed FBS, 15.4 µM
[33] = RPMI 5 mM glucose + 10% dialyzed FBS, 46.1 µM

Row | SMILES | cell viability [1] [%] | cell viability [2] [%] | cell viability [3] [%] | cell viability [4] [%] | cell viability [5] [%] | cell viability [6] [%] | cell viability [7] [%] | cell viability [8] [%] | cell viability [9] [%] | cell viability [10] [%] | cell viability [11] [%] | cell viability [12] [%] | cell viability [13] [%] | cell viability [14] [%] | cell viability [15] [%] | cell viability [16] [%] | cell viability [17] [%] | cell viability [18] [%] | cell viability [19] [%] | cell viability [20] [%] | cell viability [21] [%] | cell viability [22] [%] | cell viability [23] [%] | cell viability [24] [%] | cell viability [25] [%] | cell viability [26] [%] | cell viability [27] [%] | cell viability [28] [%] | cell viability [29] [%] | cell viability [30] [%] | cell viability [31] [%] | cell viability [32] [%] | cell viability [33] [%]
1 | O=C(Oc1ccc([N+](=O)[O-])cc1)N1CCC(C(O)(c2ccc3c(c2)OCO3)c2ccc3c(c2)OCO3)CC1 | 90 | 95.5 | 90.2 | 98.7 | 92 | 99.4 | 102 | 91.4 | 93.6 | 79.3 | 69.3 | 91.8 | 85 | 90.3 | 99.3 | 91.3 | 91.9 | 99.3 | 90.3 | 68.5 | 93.7 | 93.1 | 75.9 | 88.5 | 86.3 | 88.6 | 90.2 | 90.3 | 86.4 | 91.8 | 73.5 | 91.1 | 84.9
2 | COc1cccc([C@@H](C)NCCCc2ccccc2Cl)c1 | 93.8 | 98 | 89.9 | 93.3 | 97.5 | 99.9 | 94.4 | 92.7 | 99.3 | 99.2 | 106 | 95 | 94.2 | 94.3 | 85.9 | 96.9 | 91.9 | 94.1 | 92.8 | 90.6 | 94.9 | 103 | 83.1 | 87.5 | 85.3 | 88.1 | 91.3 | 90.7 | 87.4 | 91.4 | 95.2 | 98.1 | 99.8
3 | NC(=O)C1CCCc2c1[nH]c1ccc(Cl)cc21 (stereo not given) | 112 | 112 | 113 | 114 | 115 | 110 | 105 | 102 | 83.4 | 46.2 | 38.2 | 107 | 111 | 111 | 104 | 108 | 112 | 109 | 109 | 103 | 59.8 | 32.3 | 114 | 101 | 112 | 107 | 112 | 106 | 111 | 94.4 | 93.8 | 48.2 | 18.3
4 | N#Cc1ccnc(Nc2cc(C3CCN(C4COC4)CC3)cc(N3CCC(F)(F)C3)n2)c1 | 97.8 | 99.8 | 104 | 105 | 99.5 | 104 | 100 | 108 | 107 | 88.2 | 36.1 | 105 | 104 | 101 | 101 | 102 | 99.7 | 108 | 115 | 108 | 62.8 | 32.2 | 108 | 104 | 101 | 103 | 109 | 104 | 106 | 108 | 111 | 56.8 | 36.8
5 | COc1ccc(Nc2nccc(NCCO)n2)cc1 | 73.7 | 83.2 | 82.1 | 84.8 | 88.2 | 85.2 | 81.9 | 81.5 | 76.7 | 89.5 | 80.8 | 72 | 81.3 | 79.4 | 86.8 | 89.8 | 81.5 | 76.8 | 73.6 | 79 | 85 | 85.3 | 69 | 76.7 | 78 | 81.5 | 78.9 | 81.7 | 79.9 | 81.9 | 78.4 | 79.9 | 77.9
6 | Nc1nnc(-c2cccc(Cl)c2Cl)c(N)n1 | 87.5 | 105 | 104 | 10.7 | 107 | 106 | 99.7 | 104 | 102 | 112 | 102 | 90.2 | 98.1 | 95.8 | 11.9 | 100 | 106 | 99.6 | 90.5 | 102 | 102 | 91 | 83.8 | 88.4 | 87.7 | 29.6 | 95 | 97.7 | 99.4 | 97.5 | 98.7 | 105 | 92.1
7 | COCCOc1nc(-c2ccc(Cl)c(Cl)c2)n(-c2ccc(NC(=O)CCl)cc2)n1 | 96.6 | 97.3 | 102 | 103 | 103 | 106 | 99.1 | 104 | 84.4 | 99.8 | 98.5 | 89.4 | 101 | 90.1 | 104 | 98.9 | 101 | 93.4 | 107 | 79.7 | 79.9 | 88.7 | 84.1 | 92.2 | 86.1 | 94.6 | 91.2 | 93.7 | 98.9 | 86.4 | 76 | 77.8 | 86.9
8 | Cc1cnc(C(=O)O)c[n+]1[O-] | 115 | 120 | 112 | 115 | 112 | 116 | 114 | 119 | 111 | 107 | 105 | 122 | 128 | 124 | 126 | 120 | 127 | 125 | 127 | 116 | 119 | 100 | 121 | 130 | 123 | 111 | 117 | 123 | 120 | 108 | 115 | 109 | 102
9 | Cn1cc(/C=C2\C(=O)Nc3cccnc32)c2ccccc21 | 116 | 124 | 127 | 121 | 133 | 133 | 124 | 134 | 126 | 15.5 | 16.6 | – | – | – | – | – | – | – | – | – | – | – | – | – | – | – | – | – | – | – | – | – | –
10 | COc1cc([C@H]2Oc3cc([C@H]4Oc5cc(O)cc(O)c5C(=O)[C@@H]4O)ccc3O[C@@H]2CO)ccc1O | 108 | 118 | 106 | 109 | 118 | 119 | 112 | 110 | 105 | 99.8 | 99.8 | 113 | 112 | 125 | 109 | 113 | 104 | 98.9 | 112 | 116 | 101 | 94.2 | 102 | 109 | 115 | 105 | 111 | 106 | 103 | 101 | 96.7 | 100 | 90.1
11 | CN1\C(=C(\O)C2=C(C=CC=C2)[S+]1([O-])=O)C(=O)NC3=CC=CC=N3 | 96.6 | 104 | 109 | 119 | 107 | 110 | 70.9 | 101 | 73.1 | 30.5 | 12.2 | 104 | 111 | 114 | 105 | 108 | 109 | 82.4 | 105 | 70.2 | 42 | 10.4 | 96.9 | 97.7 | 99.5 | 112 | 105 | 106 | 85.7 | 106 | 81.9 | 60.1 | 12.4
12 | c1ccc(CNc2nc(N3CCOc4ccccc43)nc3c2CCCC3)cc1 | 101 | 102 | 107 | 108 | 117 | 99.5 | 128 | 115 | 109 | 107 | 107 | 102 | 99.9 | 100 | 106 | 105 | 110 | 111 | 106 | 108 | 100 | 96.9 | 102 | 112 | 107 | 114 | 110 | 105 | 110 | 116 | 105 | 103 | 104
13 | CN1CCCC(CC1)N2\N=C(CC3=CC=C(Cl)C=C3)/C4=C(C=CC=C4)C2=O (stereo not given) | 112 | 112 | 116 | 111 | 123 | 112 | 119 | 112 | 116 | 94.5 | 51.9 | 109 | 105 | 113 | 116 | 117 | 126 | 123 | 121 | 122 | 114 | 66.2 | 109 | 109 | 109 | 113 | 124 | 128 | 121 | 114 | 118 | 103 | 65.9
14 | CN(C)CCN(C)C(=O)c1ccc(NC(=O)Nc2ccc(-c3nc(N4CCOCC4)c4ccn(CC(F)(F)F)c4n3)cc2)cc1 | 114 | 120 | 112 | 122 | 106 | 100 | 101 | 89.7 | 90.8 | 90.8 | 83.2 | 115 | 114 | 121 | 118 | 85 | 77.9 | 77.7 | 67.6 | 64.9 | 65.4 | 69.9 | – | – | – | – | – | – | – | – | – | – | –
15 | Nc1nc(N)c2nc(-c3cccc(O)c3)c(-c3cccc(O)c3)nc2n1 | 117 | 113 | 113 | 110 | 120 | 117 | 94.6 | 89.9 | 81.2 | 72.2 | 55.2 | 108 | 117 | 113 | 109 | 122 | 112 | 118 | 118 | 101 | 89 | 28.1 | 111 | 116 | 113 | 123 | 120 | 114 | 107 | 116 | 108 | 95.5 | 52.1
16 | CC/1=C(/C(CC(=O)N1)C2=CC=C(C=C2)C(F)(F)F)C(=O)NC3=C(F)C=C4[NH]N=CC4=C3 (stereo not given) | 93.5 | 103 | 101 | 102 | 101 | 99.1 | 100 | 97.3 | 98.4 | 58.6 | 44.6 | 96.2 | 104 | 102 | 100 | 108 | 99.9 | 104 | 98.3 | 98.3 | 66.9 | 62 | 95.3 | 99.8 | 99.9 | 101 | 104 | 105 | 107 | 96.9 | 107 | 66.5 | 47.6
